Laboratory results published in patent US20130123135A1, “Methods To Identify Modulators of TAS2R48 Receptors” (priority 2010, published 2013).
Like-named read-outs stand apart in the source and are kept apart here.

Tested on: Sham transfected HEK293T/G16gust44 cells
Description: The above procedure was also carried out for HEK293T/G16gust44 cells, formed as described in WO 2004/055048 with the exception that no DNA was added during the process. These cells are termed Sham transfected cells.
On day 0, the HEK293T cells formed as described in example 2, were seeded in antibiotic-free growth medium (standard DMEM with 10% (v/v) heat-inactivated fetal bovine serum, 2 mM L-glutamine […], 100 units/ml penicillin, and 100 [g/ml streptomycin) into black wall/clear bottom 96-well plates, coated with poly(ethylenimine) (0.005% v/v) at a concentration of 15,000 cells per well and incubated for 48 hours in humidified atmosphere (37° C., 5% CO2).
Prior to performing the assay, the growth medium was discarded and the cells were left in a humidified atmosphere (37° C., 5% CO2) for 1 hour with 50 μl of loading buffer consisting of 1.5 μM Fluo-4 AM and […] probenicid (Sigma-Aldrich, St. Louis, Mo., US) in DMEM.
Following this the 96-well plate was washed 5 times with 100 μl of assay buffer (130 mM NaCl, 5 mM KCl, 10 mM 4-(2-hydroxyethyl)-1-piperazineethanesulfonic acid (HEPES), 2 mM CaCl2, and 5 mM dextrose, pH 7.4) per well, using an automated plate washer (BioTek).
The plate was then further incubated for 30 minutes at room temperature in the dark to allow for complete de-esterification of the Fluo-4. Afterwards the plate was washed 5 times with 100 μl of assay buffer per well, and reconstituted with 100 μl of assay buffer per well.
Cyclamate solutions ranging in concentration from 250 mM to 800 mM were prepared in assay buffer.
To test receptor activation 20 μl of one of these cyclamate test solutions was added to the assay buffer of at least one well of the 96 well plate. This step was repeated until all cyclamate solutions of differing concentrations had been added to at least one well. Care was taken to ensure that only one cyclamate solution was added per well. The resulting cyclamate concentrations in the well plates ranged in concentration from 25 mM to 80 mM (This is due to the dilution of the cyclamate solution in the assay buffer present in the well).
For assay reading, the plate was placed in a Fluorometric Imaging Plate Reader (FLIPR) (FLIPR-TETRA™, Molecular Devices, Sunnyvale, Calif., US).
For each well of the plate fluorescence was continuously monitored for 20 seconds to give a signal baseline (averaged to give F0) prior to cyclamate addition and for 120 seconds after cyclamate addition. The change in signal divided by F0 gives ΔF/F0 indicated in the table, with ΔF being the maximum signal occurring within the 120 seconds minus the minimum signal (occurring within the 120 seconds after cyclamate addition.
As a control the above procedure was also carried out for the sham transfected cells formed as described in example 2.

Question: Which results are given for `O=S(=O)(O)NC1CCCCC1` [Cyclamate, cyclamate]?
Answer: Cyclamate Average ΔF/F0, Sham Transfected (cyclamate 25 mM in well): 0.186; Cyclamate Average ΔF/F0, Sham Transfected (cyclamate 30 mM in well): 0.182; Cyclamate Average ΔF/F0, Sham Transfected (cyclamate 35 mM in well): 0.198; Cyclamate Average ΔF/F0, Sham Transfected (cyclamate 40 mM in well): 0.204; Cyclamate Average ΔF/F0, Sham Transfected (cyclamate 45 mM in well): 0.194; Cyclamate Average ΔF/F0, Sham Transfected (cyclamate 50 mM in well): 0.2; Cyclamate Average ΔF/F0, Sham Transfected (cyclamate 55 mM in well): 0.182; Cyclamate Average ΔF/F0, Sham Transfected (cyclamate 60 mM in well): 0.16; Cyclamate Average ΔF/F0, Sham Transfected (cyclamate 65 mM in well): 0.17; Cyclamate Average ΔF/F0, Sham Transfected (cyclamate 70 mM in well): 0.14; Cyclamate Average ΔF/F0, Sham Transfected (cyclamate 75 mM in well): 0.11; Cyclamate Average ΔF/F0, Sham Transfected (cyclamate 80 mM in well): 0.178
